BigSolDB 2.1

COc1ccc(C(=O)O)cc1
solubility (mole fraction)
Details	273.15 K	278.15 K	283.15 K	288.15 K	293.15 K	298.15 K	303.15 K	308.15 K	313.15 K	318.15 K
in acetonitrile	0.00105	0.00122	0.00156	0.00194	0.00231	0.00281	0.00351	0.00419	0.00492	0.00603
in chloroform	0.00116	0.00135	0.00173	0.0021	0.00251	0.00299	0.00383	0.0045	0.00538	0.00637
in ethanol	0.00549	0.00653	0.00757	0.00887	0.0101	0.0118	0.0136	0.0163	0.0188	0.0221
in ethyl acetate	0.0053	0.00601	0.00728	0.00853	0.00954	0.0112	0.0128	0.0142	0.0167	0.0207
in isopropanol	0.00377	0.00489	0.00597	0.00722	0.00872	0.0105	0.0127	0.0152	0.0176	0.0211
in methanol	0.00454	0.00526	0.00632	0.00752	0.00857	0.0102	0.0117	0.0138	0.0161	0.0193
in methyl acetate	0.00527	0.00611	0.0073	0.00849	0.00968	0.0112	0.0131	0.0153	0.0176	0.0213
in n-propanol	0.00455	0.00527	0.00631	0.00754	0.00895	0.0106	0.0127	0.0149	0.0174	0.0201
